From patent US9301952B2, “Diarylpyridine anti-viral compounds” (Kineta, Inc., priority 2010, dated 2016) come the findings set out here.

Molecules are shown by their SMILES. Where two headings read alike, the source gives them in different places. Some results are limits rather than exact numbers.

Data set [1] relates to IRF-3. Description: Activation of IRF-3. Type of data set: cell-based.
For data set [2], the system named is Murine Encephalomyocarditis virus (EMCV). Kind of data set: EMCV antiviral assay (cell viability by MTS after infection). In kind it is cell-based. The note with it: Huh7 cells, EMCV 250 pfu.
Data set [3] relates to HCV RNA. Description: Decrease of HCV RNA. In kind it is cell-based, Hepatitis C virus. On the procedure:
KIN400 compounds are tested for in vitro antiviral activity against HCV 2A and influenza A virus (A/WSN/33). Viral protein and RNA levels are assessed following drug treatment using the assays described above.

In data set [4] the test system is Influenza WSN strain.
In data set [5] the test system is Influenza WSN strain. Kind of data set: microbe, parasite or virus in culture. The note with it: Influenza A virus, A549, read-out: Influenza nucleoprotein (NP) ELISA (IC50). For orientation: ELISA stands for enzyme-linked immunosorbent assay.
In data set [6] the test system is Huh7 cells. Kind of data set: MTS assay to determine cytotoxicity. In kind it is cell-based, human. On the procedure: (§1) MTS assay to determine cytotoxicity. Cultured human Huh7 cells are treated with increasing amounts of compound or equivalent amounts of DMSO diluted in media for 24 hours to see their effect on cell viability. The proportion of viable cells is calculated using a cell viability assay that measures conversion of a tetrazolium compound [[…]-5-(3-carboxymethoxyphenyl)-2-(4-sulfophenyl)-2H-tetrazolium, inner salt; MTS] to a colored formazan compound in live cells.
(§2) The conversion of MTS to formazan is detected in a 96-well microtiter plate reader, and the resulting optical densities can be plotted directly to estimate cell viability. […] Compounds were diluted to final concentrations of 0, 5, 10, 20, and 50 uM in media containing 0.5% DMSO. Negative control wells contain no compound and positive control for cytotoxicity is examined using an EMCV infection which causes 100% cytopathic effect. Each compound concentration and control is done in triplicate wells to generate error bars.
(Formazan colour is commonly taken as a measure of viable cells.)

Data set [7] in a line: MTS assay to determine cytotoxicity. In kind it is cell-based, human. The note with it: human; Huh7 cells, 24 hours. As for the experimental part: as §1, §2
In data set [8] the test system is HCV2a. Description: HCV focus-forming assay (FFA) / HCV IF antiviral assay. Type of data set: cell-based, Hepatitis C virus. On the procedure: FIG. 1 is a graph of an HCV focus-forming assay. Huh7 cells were pre-treated with compound KIN400 for 24 hours and infected with HCV2a at an multiplicity of infection (MOI) of 0.5 for 48 hours. HCV protein was detected by immunofluorescent staining with viral-specific serum and foci were normalized to negative control cells that were not drug treated (equal to 1).
HCV IF antiviral assay. Huh7 cells are seeded on a 96 well plate at 5×10^3 cells per well and cells are allowed to attach and grow for 24 hours. Compounds that have been diluted to 10 uM in media and contain a final concentration of 0.5% DMSO are added to each well and grown another 24 hours. The compound media solution is removed from the plate and stored in a clean tissue culture dish. Cell monolayers are washed with PBS and HCV2a virus is added at the stated MOI. Virus is incubated for 2-4 hours and then removed, the monolayers are washed with PBS and the compound solutions are replaced into each well.
The cells are grown overnight and then cells are fixed and stained for HCV proteins. All buffers and reagents are used from the Cellomics staining kits described above. Primary serum PHS#72 is diluted 1:3,000 in wash buffer and incubated at room temperature 1 hour. […] The number of infected cells is counted and representative images are saved.

On to `N#Cc1c(-c2ccccc2)cc(-c2ccccc2)nc1SCC(=O)N1CCOCC1` [KIN400], for which the “activation of IRF-3” value in data set [1] is “activation of IRF-3”. Further, the figures for the Cell viability post-infection in data set [2] (5 μM), in data set [2] (10 μM) and in data set [2] (20 μM) were around 0.75, around 0.95 and around 1.05, respectively. Further, the “Decrease HCV RNA” value in data set [3] is on record as “Yes”; in data set [3] (listed as KIN100), “decrease in HCV RNA”. The “Therapeutic index (TI) (CC50/IC50)” value in data set [4] was above 10; in data set [4] (listed as KIN100) it was 250. Moreover, the “antiviral activity against influenza virus (in words)” value in data set [4] (influenza virus strain WSN) was “antiviral activity against influenza virus”. The half-maximal inhibitory concentration (IC50) in data set [5] was 0.2 µM; in data set [8] (Hepatitis C virus, Huh-7, Huh7 cells) it was 5.1 µM; in data set [8] (Huh7 cells), 5.1 µM. The compound also showed a CC50 in data set [6] above 50 µM. For the same compound, the “cytotoxicity (in words)” value in data set [6] is listed as “low cytotoxicity”. For the same compound, in data set [7], the CC50 at 24 h was above 50 µM.

As usually defined, the IC50 is the point on the concentration scale where inhibition reaches its midpoint. For orientation: CC50 means the concentration giving 50% cytotoxicity.
